Read-outs that look alike come from different tables or passages of the source.
Columns and labels:
[1] = system: small intestinal tissue of a living body; conditions: in vitro; cited from earlier work
[2] = system: intestinal epithelial cells; assay: Fg of midazolam calculated from the permeation test (Expression 1 / Expression 2); type: in vitro ADME, human; conditions: cells of Example 4
Experimental: Fg=(the B60 substrate amount+the cell 60 substrate amount)/(the B60 substrate amount +cell 60 substrate amount+the total 60 metabolite amount) (Expression 1)
The B60 substrate amount: The mass of the substrate permeated to the B side 60 minutes after the test substance serving as a substrate was added to the A side.
The cell 60 substrate amount: The mass of the substrate accumulated in the cells 60 minutes after the test substance serving as a substrate was added to the A side.
The total 60 metabolite amount: Total amount of the metabolite accumulated on the A, on the B side, and in the cells 60 minutes after the test substance serving as a substrate was added to the A side.

[3] = Midazolam permeability of intestinal epithelial cells (apical to basolateral, cell culture insert); type: in vitro ADME; conditions: human; for Papp A→B at 60 min, 10 μmol/L: 10 μmol/L midazolam apical pH 6.5, basolateral pH 7.4, 37° C., read-out: Apparent permeability coefficient; for Papp at 60 min, 10 μmol/L: read-out: Apparent permeability coefficient after correction
Experimental: The midazolam permeability of the intestinal epithelial cells obtained in Comparative Examples 1 and Examples 1 to 5 was evaluated. After the end of the induction of differentiation, HBSS (pH 6.5) was added to the apical side and HBSS (pH 7.4) was added to the lower bottom (basolateral) side, and pre-incubation was carried out at 37° C. for 60 minutes. Then, HBSS (pH 6.5) containing 10 μmol/L midazolam was added to the apical side, and HBSS (pH 7.4) was added to the lower bottom (basolateral) side, and incubation was carried out at 37° C. for 60 minutes. A sample was collected from the lower bottom (basolateral) side every 15 minutes. The amount of each compound (unchanged form) was quantified using a liquid chromatography-mass spectrometer (LC-MS/MS). The apparent permeability coefficient (Papp) was calculated from the quantification result.
The apparent permeability coefficient was corrected by using the scaling factor x for the apparent permeability coefficient of Example 4 obtained in Test Example 6. At this time, the following expression was used.
The permeation amount per unit time=(the B60 substrate amount−x ×the difference in the B60 substrate amount due to the presence or absence of the addition of the metabolism inhibitor)/the permeation time

[4] = small intestine of a living body; cited from earlier work

In the case of `Cc1ncc2n1-c1ccc(Cl)cc1C(c1ccccc1F)=NC2` [midazolam], the apparent permeability coefficient [1] is listed as 5 ×10⁻⁶ cm/s, the “Fg simply calculated by Expression 1” value ([2]; no scaling factor) is listed as 0.83 and the Fg after correction ([2]; scaling factor x = 1) is listed as 0.83. The Fg after correction ([2]; scaling factor x = 2) was 0.70, the Fg after correction ([2]; scaling factor x = 4) was 0.54 and the Fg after correction ([2]; scaling factor x = 6) was 0.44. It also gave a Fg after correction ([2]; scaling factor x = 8) of 0.37, a Fg after correction ([2]; scaling factor x = 10) of 0.32 and a Fg after correction ([2]; scaling factor x = 12) of 0.28. For the same compound, the Papp A→B at 60 min, 10 μmol/L ([3]; cells of Comparative Example 1) was 48 ×10⁻⁶ cm/s, the Papp A→B at 60 min, 10 μmol/L ([3]; cells of Example 1) was 30 ×10⁻⁶ cm/s and the Papp A→B at 60 min, 10 μmol/L ([3]; cells of Example 2) was 32 ×10⁻⁶ cm/s. The Papp A→B at 60 min, 10 μmol/L ([3]; cells of Example 3) was 33 ×10⁻⁶ cm/s, the Papp A→B at 60 min, 10 μmol/L ([3]; cells of Example 4) was 31 ×10⁻⁶ cm/s and the Papp at 60 min, 10 μmol/L ([3]; cells of Example 4, scaling factor x = 2) was 21.9 ×10⁻⁶ cm/s. The Papp at 60 min, 10 μmol/L ([3]; cells of Example 4, scaling factor x = 3) was 15.2 ×10⁻⁶ cm/s, the Papp at 60 min, 10 μmol/L ([3]; cells of Example 4, scaling factor x = 4) was 8.6 ×10⁻⁶ cm/s and the Papp at 60 min, 10 μmol/L ([3]; cells of Example 4, scaling factor x = 5) was 1.9 ×10⁻⁶ cm/s. For the same compound, the Papp at 60 min, 10 μmol/L ([3]; cells of Example 4, scaling factor x = 5.2) was 0.6 ×10⁻⁶ cm/s, the Papp A→B at 60 min, 10 μmol/L ([3]; cells of Example 5) was 31 ×10⁻⁶ cm/s and the “Fa (absorption rate in the intestinal tract)” value [4] was 1.0.

Source: patent US20230126568A1, “PRODUCTION METHOD FOR […] AND UTILIZATION THEREOF” (FUJIFILM Corporation, priority 2020, published 2023)
